# “Also recorded” adds a separate entry of the source. Structures can show the parent of a compound that is named as a salt.
# Assays:
# bovine β 1-AR = molecular target: T1, bovine β 1-AR (Bos taurus, UniProt Q9TT96); assay: cAMP induction in CHO cells transfected with bovine β 1-AR construct (LANCE cAMP kit); assay type: cell-based; conditions: 45 min, 5 mM theophylline, ND = cAMP not detected or insufficient for EC50
# T1 construct: expressed in transfected cells; host or cells: Chinese hamster ovary (CHO) cells, pcDNA3.1+ vector
# T1 sequence (Q9TT96 whole entry): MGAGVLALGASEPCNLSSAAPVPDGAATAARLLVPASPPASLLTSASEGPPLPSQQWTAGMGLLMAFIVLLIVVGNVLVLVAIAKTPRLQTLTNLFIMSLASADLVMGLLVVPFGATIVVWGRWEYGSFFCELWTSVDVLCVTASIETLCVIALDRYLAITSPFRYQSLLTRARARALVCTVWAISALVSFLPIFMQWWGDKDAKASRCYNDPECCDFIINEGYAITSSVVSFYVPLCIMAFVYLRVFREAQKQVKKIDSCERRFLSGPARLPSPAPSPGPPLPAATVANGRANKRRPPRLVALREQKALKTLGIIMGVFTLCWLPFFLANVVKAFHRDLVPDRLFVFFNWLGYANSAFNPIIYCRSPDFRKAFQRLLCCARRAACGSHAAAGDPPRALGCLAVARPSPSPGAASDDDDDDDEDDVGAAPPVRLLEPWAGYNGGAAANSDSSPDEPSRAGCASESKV
# Description: (§1) Chinese Hamster Overy cells were transfected with either the bovine β 1-, β 2-, or β 3-AR constructs in pcDNA3.1+. Expression of the β-AR was confirmed by polymerase chain reaction (PCR). Thereafter, cells were grown in DMEM/Ham’s F12 media with 10% FBS and 1% penicillin/streptomycin at 37 °C under 5% CO2. Opti-plates (Perkin Elmer, Waltham, MA) were used for all experiments. For each experiment, cells were plated into 96-well tissue culture plates at 60,000 cells per well in a volume of 100 µL media. Cells were grown for 48 hr after plating prior to ligand addition and determination of cAMP.
# (§2) All samples and standards were tested in duplicate for each repetition, and 4 repetitions per cell line were performed for each potential ligand tested. Controls included no treatment (media alone), 5 mM theophylline alone (an inhibitor of phosphodiesterase), 0.1 % DMSO alone, and water alone. None of the controls differed from media alone and are thus not reported. A volume of media equal to the volume of test material to be added was removed from the well just prior to stimulation. Theophylline was added in a volume of 25 µL to obtain a final concentration of 5 mM and each test molecule was delivered in 10 µL. Cells were returned to 37 °C and allowed to incubate for 45 min before media was removed and the cells lysed in 38 µL lysis buffer A. The LANCE cAMP detection kit (AD0262E) was purchased from Perkin Elmer. The LANCE assay instructions were followed for a 40 µL reaction volume with 15 µL of cell lysate. The reaction was incubated for 20 hr prior to measuring fluorescence. A standard curve was generated with increasing concentrations of cAMP, and the linear portion of the curve was used to calculate sample cAMP concentrations.
# [1] = system: bovine s.c. adipose tissue; assay: Lipolysis: NEFA release, s.c. adipose tissue explants; assay type: cell-based, bovine (Angus cross steers); conditions: 30 min; for Effect on NEFA release (in words): s.c. adipose tissue; for NEFA: s.c., mean ± SEM, baseline 0.99 ± 0.40
# [2] = system: bovine i.m. adipose tissue; assay: cAMP in i.m. adipose tissue explants (Cyclic AMP XP Assay Kit); assay type: cell-based, bovine (Angus cross steers); conditions: for cAMP: n = 6 steers, baseline 0.64 ± 0.19
# Description: (§3) Fresh s.c. adipose tissue was cut into small pieces (50 to 100 mg, actual weight recorded) and i.m. adipose tissue was dissected from the LM as described previously ([Smith and Crouse, 1984]; [Miller et al., 1988]) and weighed. The s.c. and i.m. adipose samples were incubated according to 3 different sets of experimental conditions. Experiment 1: Small pieces of s.c. and i.m. adipose tissues (50 to 100 mg; 1 to 2 mm thick; [Smith and Prior, 1981]) were preincubated in 6-well tissue culture plates in a CO2/O2 incubator (NuAire model 4750 CO2 incubator, Plymouth, MN) for 30 min at 37 °C, 5% CO2 in KHB plus 5 mM glucose, 10 mM HEPES, and 0.5 mM theophylline. […] Experiment 2: The s.c. and i.m. adipose samples were preincubated in KHB plus 5 mM glucose, 10 mM HEPES, and 0.5 mM theophylline in the presence or absence of either 10 µM L-748,337 (β 3-AR antagonist) or 50 µM PRO (β-AR pan-antagonist). […] After the 30 min preincubation, either DOB (β 1-AA) or SAL (β 2-AA) was added to the culture plate wells in a concentration-dependent manner (10^–9 to 10^–4 M) for an additional 30 min. For all experiments, there were at least 3 replicate wells per treatment condition. After a total of 1-hr incubation, the adipose samples were homogenized in 1 mL cell lysis buffer (Cell Signaling Technology, Danvers, MA) with 1 mM phenymethylsulfony fluoride, and centrifuged at 14,000 × g for 30 min to remove tissue debris. The supernatant fractions were stored at −80 °C until subsequent analyses were performed.
# (§4) The concentration of cAMP was determined based on the principle of competitive binding using the Cyclic AMP XP Assay Kit according to the manufacturer’s instructions. Cytosolic extracts from the adipose explants were co-incubated at room temperature for 3 hr in 96-well plates with the HRP-linked cAMP substrate coated onto an immobilized rabbit monoclonal cAMP antibody using a horizontal orbital plate shaker. After the reaction, color development was measured at 450 nm using an Epoch microplate reader (Biotek Instruments, Winooski, VT). All samples were analyzed in duplicate. A standard curve and cAMP concentrations were calculated using GrapPad Prism 6.04 software (GraphPad Software Inc., San Diego, CA).
# [3] = system: bovine s.c. adipose tissue; assay: cAMP in s.c. adipose tissue explants (Cyclic AMP XP Assay Kit); assay type: cell-based, bovine (Angus cross steers); conditions: for Effect on cAMP (in words): s.c. adipose tissue, ligand alone; for Effect on cAMP (in words) / cAMP: 30 min; for cAMP: n = 6 steers, baseline 0.42 ± 0.06
# Description: as §3, §4
# [4] = system: bovine s.c. adipose tissue; assay: Lipolysis: glycerol release, s.c. adipose tissue explants; assay type: cell-based, bovine (Angus cross steers); conditions: 30 min; for Glycerol: s.c., mean ± SEM, baseline 50.0 ± 12.8
# bovine β 3-AR = molecular target: T2, bovine β 3-AR (Bos taurus, UniProt P46626); assay: cAMP induction in CHO cells transfected with bovine β 3-AR construct (LANCE cAMP kit); assay type: cell-based; conditions: 45 min, 5 mM theophylline
# T2 construct: expressed in transfected cells; host or cells: Chinese hamster ovary (CHO) cells, pcDNA3.1+ vector
# T2 sequence (P46626 whole entry): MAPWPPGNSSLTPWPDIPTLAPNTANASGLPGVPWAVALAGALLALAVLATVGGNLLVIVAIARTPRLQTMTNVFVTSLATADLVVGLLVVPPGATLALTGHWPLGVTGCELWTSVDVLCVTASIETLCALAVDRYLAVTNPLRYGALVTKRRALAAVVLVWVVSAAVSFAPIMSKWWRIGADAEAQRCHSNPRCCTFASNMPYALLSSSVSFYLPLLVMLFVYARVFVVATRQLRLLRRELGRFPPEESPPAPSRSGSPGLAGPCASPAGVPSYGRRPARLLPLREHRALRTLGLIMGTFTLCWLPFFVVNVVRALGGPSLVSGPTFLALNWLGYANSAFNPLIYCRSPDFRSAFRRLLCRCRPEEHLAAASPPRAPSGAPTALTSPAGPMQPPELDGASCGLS
# Description: as §1, §2
# [5] = system: bovine i.m. adipose tissue; assay: Lipolysis: NEFA release, i.m. adipose tissue explants; assay type: cell-based, bovine (Angus cross steers); conditions: 30 min; for Effect on NEFA release (in words): i.m. adipose tissue; for NEFA: i.m., mean ± SEM, baseline 0.65 ± 0.20
# [6] = system: bovine i.m. adipose tissue; assay: Lipolysis: glycerol release, i.m. adipose tissue explants; assay type: cell-based, bovine (Angus cross steers); conditions: 30 min; for Effect on glycerol release (in words): i.m. adipose tissue; for Glycerol: i.m., mean ± SEM, baseline 48.6 ± 10.3
# [7] = system: bovine i.m. adipose tissue; assay: cAMP in i.m. adipose tissue explants (Cyclic AMP XP Assay Kit); assay type: cell-based, bovine (Angus cross steers)
# bovine β 2-AR = molecular target: T3, bovine β 2-AR (Bos taurus, UniProt Q28044); assay: cAMP induction in CHO cells transfected with bovine β 2-AR construct (LANCE cAMP kit); assay type: cell-based; conditions: 45 min, 5 mM theophylline, ND = cAMP not detected or insufficient for EC50
# T3 construct: expressed in transfected cells; host or cells: Chinese hamster ovary (CHO) cells, pcDNA3.1+ vector
# T3 sequence (Q28044 whole entry): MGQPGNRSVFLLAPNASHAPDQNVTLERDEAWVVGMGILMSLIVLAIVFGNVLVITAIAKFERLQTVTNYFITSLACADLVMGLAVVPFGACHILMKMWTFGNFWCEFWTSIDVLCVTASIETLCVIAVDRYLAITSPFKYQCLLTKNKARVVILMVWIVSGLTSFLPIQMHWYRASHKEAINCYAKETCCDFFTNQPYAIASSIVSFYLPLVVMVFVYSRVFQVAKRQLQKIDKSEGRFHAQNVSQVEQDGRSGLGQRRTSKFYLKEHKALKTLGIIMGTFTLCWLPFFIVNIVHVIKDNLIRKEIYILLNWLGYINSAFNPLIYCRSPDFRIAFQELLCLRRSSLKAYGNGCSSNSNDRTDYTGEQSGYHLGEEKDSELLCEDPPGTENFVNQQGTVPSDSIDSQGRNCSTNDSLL
# Description: All samples and standards were tested in duplicate for each repetition, and 4 repetitions per cell line were performed for each potential ligand tested. Controls included no treatment (media alone), 5 mM theophylline alone (an inhibitor of phosphodiesterase), 0.1 % DMSO alone, and water alone. […] A volume of media equal to the volume of test material to be added was removed from the well just prior to stimulation. Theophylline was added in a volume of 25 µL to obtain a final concentration of 5 mM and each test molecule was delivered in 10 µL. […] The reaction was incubated for 20 hr prior to measuring fluorescence. […]
# [8] = s.c., pretreatment 1 µM LUB alone or with 10 µM L-748,337, P < 0.05
compound,measurement,setting,value
"CC(C)N[C@@H]1CCn2c(=O)[nH]c3cccc(c32)[C@H]1O (racemic) [ZIL, zilpaterol hydrochloride]","Induction of cAMP (EC50), β 1-Construct",bovine β 1-AR,no detectible cAMP response
same,Effect on NEFA release (in words),[1],Neither RAC nor ZIL affected cAMP production or glycerol or NEFA release
same,NEFA,[1]; 10^–6 M ligand,1.17 ± 0.35 µmol/100 mg tissue
same,NEFA,[1]; 10^–7 M ligand,1.25 ± 0.31 µmol/100 mg tissue
same,NEFA,[1]; 10^–8 M ligand,1.06 ± 0.30 µmol/100 mg tissue
same,Effect on cAMP (in words),"[2]; i.m. adipose tissue, ligand alone, 30 min",Neither RAC nor ZIL (10^–8 to 10^–6 M) affected cAMP concentrations
same,cAMP,"[2]; i.m., 10^–6 M ligand, 30 min, mean ± SEM",0.78 ± 0.39 pmol/100 mg tissue
same,cAMP,"[2]; i.m., 10^–7 M ligand, 30 min, mean ± SEM",0.51 ± 0.13 pmol/100 mg tissue
same,cAMP,"[2]; i.m., 10^–8 M ligand, 30 min, mean ± SEM",0.79 ± 0.30 pmol/100 mg tissue
same,Effect on cAMP (in words),[3],Neither RAC nor ZIL (10^–8 to 10^–6 M) affected cAMP concentrations
same,cAMP,"[3]; s.c., 10^–6 M ligand, mean ± SEM",0.62 ± 0.27 pmol/100 mg tissue
same,cAMP,"[3]; s.c., 10^–7 M ligand, mean ± SEM",0.61 ± 0.27 pmol/100 mg tissue
same,cAMP,"[3]; s.c., 10^–8 M ligand, mean ± SEM",0.76 ± 0.37 pmol/100 mg tissue
same,Glycerol,[4]; 10^–6 M ligand,65.9 ± 12.6 nmol/100 mg tissue
same,Glycerol,[4]; 10^–7 M ligand,59.3 ± 15.4 nmol/100 mg tissue
same,Glycerol,[4]; 10^–8 M ligand,54.8 ± 8.0 nmol/100 mg tissue
same,EC50,bovine β 3-AR,9100 nM
same,Effect on NEFA release (in words),[5],Neither RAC nor ZIL affected cAMP production or glycerol or NEFA release
same,NEFA,[5]; 10^–6 M ligand,0.50 ± 0.16 µmol/100 mg tissue
same,NEFA,[5]; 10^–7 M ligand,0.91 ± 0.30 µmol/100 mg tissue
same,NEFA,[5]; 10^–8 M ligand,0.78 ± 0.28 µmol/100 mg tissue
same,Effect on glycerol release (in words),[6],Neither RAC nor ZIL affected cAMP production or glycerol or NEFA release
same,Glycerol,[6]; 10^–6 M ligand,46.0 ± 14.5 nmol/100 mg tissue
same,Glycerol,[6]; 10^–7 M ligand,48.6 ± 13.7 nmol/100 mg tissue
same,Glycerol,[6]; 10^–8 M ligand,67.4 ± 21.6 nmol/100 mg tissue
"CC(C)(Cc1ccc(Oc2ncccc2C#N)cc1)NC[C@H](O)COc1ccccc1-c1cccs1.CC(C)(Cc1ccc(Oc2ncccc2C#N)cc1)NC[C@H](O)COc1ccccc1-c1cccs1.O=C(O)/C=C/C(=O)O [LUB, lubabegron fumarate]",Effect of LUB on cAMP production in tissue pretreated with antagonist,"[7]; 30 min preincubation with 10 µM L-748,337, then LUB",depressed cAMP production
same,Effect of LUB on cAMP production in tissue pretreated with antagonist,"[7]; 30 min preincubation with 50 µM PRO, then LUB",no effect
same,EC50,bovine β 1-AR,190 nM
same,Effect on NEFA release (in words),[1],did not affect; also recorded: Neither BRL-37344 nor LUB influenced cAMP or NEFA concentrations
same,Effect of LUB pretreatment on cAMP with DOB or SAL,"[2]; i.m. adipose explants, 1 µM LUB",without effect
same,"Adipose tissue lipolytic sensitivity (−logEC50) to β-AR ligands, i.m.","[2]; i.m., cAMP readout, mean ± SEM, n = 12 cattle, combinations: preincubation with 1 µM LUB ± 10 µM L-748,337, N.A. = not possible to calculate EC50",not demonstrable
same,"Induction of cAMP (EC50), β 2-Construct",bovine β 2-AR,no detectible agonistic activity
same,Effect on cAMP (in words),[3],Neither BRL-37344 nor LUB influenced cAMP or NEFA concentrations
same,Effect of LUB on cAMP production in tissue pretreated with antagonist,"[3]; s.c., 30 min preincubation with 10 µM L-748,337, then LUB 10^–9 to 10^–4 M",reduced by LUB in a dose–response manner
same,Effect of LUB on cAMP production in tissue pretreated with antagonist,"[3]; s.c., 30 min preincubation with 50 µM PRO, then LUB 10^–9 to 10^–4 M",reduced by LUB in a dose–response manner
same,"Adipose tissue lipolytic sensitivity (−logEC50) to β-AR ligands, s.c.","[3]; s.c., cAMP readout, mean ± SEM, n = 12 cattle, combinations: preincubation with 1 µM LUB ± 10 µM L-748,337",7.40 ± 1.78^2
same,Effect on the EC50 of the SAL cAMP response,"[3]; s.c., pretreatment 1 µM LUB alone or with 10 µM L-748,337, P < 0.0001",significantly increased
same,Effect on the maximal cAMP response to DOB,[3]; [8],significantly diminished the maximal cAMP response
same,Effect on the maximal cAMP response to SAL,[3]; [8],attenuated the maximal cAMP response
same,Effect on the EC50 of the cAMP response to DOB,"[3]; s.c., pretreatment 1 µM LUB alone or with 10 µM L-748,337, P > 0.05",not a significant change
same,Effect on glycerol release (in words),[4]; s.c. adipose tissue,did not affect
same,EC50,bovine β 3-AR,6 nM
same,Effect on NEFA release (in words),[5],did not affect; also recorded: not influenced
same,Effect on glycerol release (in words),[6],did not affect
